Experimental data as given in paper PMC7729733, “Biological Properties of New Chiral 2-Methyl-5,6,7,8-tetrahydroquinolin-8-amine-based Compounds” (Molecules, 2020).
Like-named read-outs stand apart in the source and are kept apart here.

What was measured:
HCT-116 = test system: HCT-116; set-up: method as in PMID 30253345; details: cytotoxicity; cited from earlier work
[1] = test system: MSTO-211H (biphasic mesothelioma); details: reference compound; cited from earlier work
[2] = test system: A2780 (ovarian carcinoma); details: reference compound; cited from earlier work
[3] = test system: HT-29 (colorectal adenocarcinoma); details: reference compound; cited from earlier work
[4] = test system: CEM (human T-lymphocyte cells); details: read-out: IC50 CEM; reference compound; cited from earlier work
[5] = test system: HMEC-1 (human dermal microvascular endothelial cells); details: read-out: IC50 HMEC-1; reference compound; cited from earlier work
[6] = test system: HeLa (human cervix carcinoma cells); details: read-out: IC50 HeLa; reference compound; cited from earlier work
[7] = molecular target: quinone reductase 2 (QR2); set-up: method as in PMID 22716080, PMID 16765324; details: read-out: QR2 inhibitory activity IC50; cited from earlier work
[8] = test system: A2780 (ovarian carcinoma); assay: Cell growth assay (Trypan blue), A2780 cells; type: cell-based, human; details: for IC50: 72 h, Trypan blue
Experimental: (§1) A2780 (human ovarian carcinoma) and HT-29 (human colorectal adenocarcinoma) were grown in RPMI 1640 (Sigma Chemical Co., St. Louis, MO, USA), and MSTO-211H (human biphasic mesothelioma) were grown in RPMI 1640 (Sigma Chemical Co.) supplemented with 2.38 g/L Hepes, 0.11 g/L pyruvate sodium, and 2.5 g/L glucose. Then, 1.5 g/L NaHCO3, 10% heat-inactivated fetal calf serum (Biowest), 100 U/mL penicillin, 100 μg/mL streptomycin, and 0.25 μg/mL amphotericin B (Sigma Chemical Co.) were added to the media. The cells were cultured at 37 °C in a moist atmosphere of 5% carbon dioxide in air. Cells (2.5–3 × 10^4) were seeded into each well of a 24-well cell culture plate. After incubation for 24 h, various concentrations of the test agents were added to the complete medium and incubated for a further 72 h. A Trypan blue assay was performed to determine cell viability. Cytotoxicity data were expressed as IC50 values, i.e., the concentration of the test compound able to induce a 50% reduction in cell number compared with control cultures.

[9] = molecular target: T1, human topoisomerase II alpha (Homo sapiens, UniProt P11388); assay: Topoisomerase II relaxation assay; type: biochemical; details: supercoiled pBR322; 60 min at 37 °C
T1 construct: purchased Inspiralis
T1 sequence (P11388 whole entry): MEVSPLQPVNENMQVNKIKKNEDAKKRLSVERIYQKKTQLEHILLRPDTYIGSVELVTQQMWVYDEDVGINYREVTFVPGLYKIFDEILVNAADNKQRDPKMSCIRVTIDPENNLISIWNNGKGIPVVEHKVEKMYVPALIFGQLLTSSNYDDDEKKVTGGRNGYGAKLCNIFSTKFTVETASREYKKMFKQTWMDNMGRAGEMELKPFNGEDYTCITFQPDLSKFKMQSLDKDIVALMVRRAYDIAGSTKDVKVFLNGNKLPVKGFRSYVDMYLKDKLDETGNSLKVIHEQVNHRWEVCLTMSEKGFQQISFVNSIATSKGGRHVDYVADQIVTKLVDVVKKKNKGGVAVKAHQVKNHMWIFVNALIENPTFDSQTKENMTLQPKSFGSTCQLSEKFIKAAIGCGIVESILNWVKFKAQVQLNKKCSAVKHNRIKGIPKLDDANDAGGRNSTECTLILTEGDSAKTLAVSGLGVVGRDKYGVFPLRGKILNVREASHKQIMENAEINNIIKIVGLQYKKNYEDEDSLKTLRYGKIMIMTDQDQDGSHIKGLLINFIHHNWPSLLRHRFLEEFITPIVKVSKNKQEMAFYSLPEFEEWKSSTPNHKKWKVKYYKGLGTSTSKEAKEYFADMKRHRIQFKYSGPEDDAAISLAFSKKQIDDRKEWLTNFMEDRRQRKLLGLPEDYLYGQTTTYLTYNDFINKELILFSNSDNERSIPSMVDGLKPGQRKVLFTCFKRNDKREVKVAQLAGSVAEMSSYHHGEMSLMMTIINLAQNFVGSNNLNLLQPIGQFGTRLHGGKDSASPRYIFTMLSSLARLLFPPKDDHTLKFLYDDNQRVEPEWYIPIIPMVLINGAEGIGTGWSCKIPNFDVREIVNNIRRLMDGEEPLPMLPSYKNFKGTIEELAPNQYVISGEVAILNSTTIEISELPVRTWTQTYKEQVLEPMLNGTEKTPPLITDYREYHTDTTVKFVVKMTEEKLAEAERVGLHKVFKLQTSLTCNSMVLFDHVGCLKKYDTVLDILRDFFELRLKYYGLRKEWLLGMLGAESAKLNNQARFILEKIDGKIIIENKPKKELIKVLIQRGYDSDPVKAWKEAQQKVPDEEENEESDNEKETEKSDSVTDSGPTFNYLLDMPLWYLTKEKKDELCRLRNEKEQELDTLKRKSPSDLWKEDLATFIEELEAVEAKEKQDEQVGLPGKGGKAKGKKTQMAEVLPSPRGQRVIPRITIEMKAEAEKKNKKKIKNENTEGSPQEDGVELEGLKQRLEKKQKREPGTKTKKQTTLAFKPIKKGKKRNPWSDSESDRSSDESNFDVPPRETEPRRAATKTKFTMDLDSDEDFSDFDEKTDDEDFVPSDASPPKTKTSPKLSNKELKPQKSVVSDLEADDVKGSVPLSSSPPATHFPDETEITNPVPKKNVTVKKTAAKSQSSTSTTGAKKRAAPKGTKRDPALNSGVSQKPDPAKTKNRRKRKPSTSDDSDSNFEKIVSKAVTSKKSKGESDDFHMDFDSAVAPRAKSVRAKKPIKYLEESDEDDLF
Experimental: (§2) Figure 3SI. Effect of compound (R)-5a on the relaxation of supercoiled pBR322 DNA by human recombinant topoisomerase I or II. Supercoiled plasmid pBR322 DNA (DNA) was incubated with topo I (topo I) or II in the absence (topo II) and in the presence of (R)-5a at indicated […]
(§3) Topoisomerase I and II relaxation assay
(§4) Supercoiled pBR322 plasmid DNA (20 ng, Fermentas Life Sciences) and 5U topoisomerase I (human topoisomerase I, TopoGEN) or alternatively, supercoiled pBR322 plasmid DNA (0.25 μg) and 1U topoisomerase II (human topoisomerase II alpha, Inspiralis) were incubated in the presence of test compound as indicated for 60 min at 37 °C in 20 µL reaction buffer.Reactions were stopped by adding 4 μL stop buffer (5% sodium dodecyl sulfate, 0.125% b romophenol blue, and 30% glycerol), 50 μg/mL proteinase K (Sigma) and incubating for a further 30 min at 37 °C.
(§5) The samples were separated by electrophoresis on a 1% agarose gel at room temperature. The gels were stained with ethidium bromide 1 μg/mL in TAE buffer (0.04 M Tris-acetate and 0.001 M EDTA), transilluminated by UV light, and fluorescence emission was visualized by a CCD camera coupled to a Bio-Rad Gel Doc XR apparatus.
(§6) (1 picture or pasted object on this page, not shown here)

[10] = test system: MSTO-211H (biphasic mesothelioma); assay: Cell growth assay (Trypan blue), MSTO-211H cells; type: cell-based, human; details: for IC50: Homo sapiens, MSTO-211H, 72 h, Trypan blue
Experimental: as §1

human topoisomerase I = molecular target: T2, human topoisomerase I (Homo sapiens, UniProt P11387); assay: Topoisomerase I relaxation assay; type: biochemical; details: supercoiled pBR322; 60 min at 37 °C
T2 construct: purchased TopoGEN
T2 sequence (P11387 1-765): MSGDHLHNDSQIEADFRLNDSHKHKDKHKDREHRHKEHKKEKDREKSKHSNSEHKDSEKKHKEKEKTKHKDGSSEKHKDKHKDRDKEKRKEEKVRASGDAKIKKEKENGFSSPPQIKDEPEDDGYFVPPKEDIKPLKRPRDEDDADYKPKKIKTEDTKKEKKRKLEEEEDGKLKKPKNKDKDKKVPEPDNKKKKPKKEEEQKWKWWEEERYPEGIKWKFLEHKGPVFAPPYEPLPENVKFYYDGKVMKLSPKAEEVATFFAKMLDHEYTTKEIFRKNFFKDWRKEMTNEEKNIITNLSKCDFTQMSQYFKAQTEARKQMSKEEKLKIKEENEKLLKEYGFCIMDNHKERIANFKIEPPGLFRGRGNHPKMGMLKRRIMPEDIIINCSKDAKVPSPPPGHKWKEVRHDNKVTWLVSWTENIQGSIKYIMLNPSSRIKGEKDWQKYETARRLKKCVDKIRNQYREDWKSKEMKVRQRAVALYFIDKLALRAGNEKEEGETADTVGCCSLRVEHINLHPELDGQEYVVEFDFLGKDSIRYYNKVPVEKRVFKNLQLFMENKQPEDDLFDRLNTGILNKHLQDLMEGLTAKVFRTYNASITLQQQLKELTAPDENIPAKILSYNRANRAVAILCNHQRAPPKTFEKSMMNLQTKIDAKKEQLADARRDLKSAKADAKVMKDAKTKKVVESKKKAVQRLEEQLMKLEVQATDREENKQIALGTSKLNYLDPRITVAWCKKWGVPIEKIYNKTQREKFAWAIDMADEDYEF
Experimental: as §2, §3, §4, §5, §6

[11] = test system: HT-29 (colorectal adenocarcinoma); assay: Cell growth assay (Trypan blue), HT-29 cells; type: cell-based, human; details: Homo sapiens, 72 h
Experimental: as §1

A2780 cells [12] = assay: Measurement of reactive oxygen species (H2DCF-DA); type: cell-based, human; details: 50 μM, 120 min of incubation
Experimental: The intracellular production of ROS was determined by using the cell-permeable fluorogenic probe 2′,7′-dichlorodihydrofluorescein diacetate (H2DCF-DA). A2780 cells (10^4) were seeded in 96-well plates and incubated for 24 h. The medium was then removed, and the cells washed with PBS and incubated with 10 μM H2DCF-DA in the dark for 20 min at 37 °C and 5% carbon dioxide in air. Afterwards, the medium was removed, cells washed with PBS, and PBS/10 mM glucose containing the test compound was added. ROS production was estimated by monitoring the fluorescence increase of the probe (λex = 480, λem = 530) using a PerkinElmer VICTOR X3 plate reader.

A2780 cells [13] = assay: Cell cycle analysis (propidium iodide, flow cytometry); type: cell-based, human; details: 28 h, mean ± SD of four experiments
Experimental: A2780 cells ([…]) were seeded into a 6-well culture plate in complete medium. After incubation for 24 h, the test compound was added at the indicated concentration and cells were incubated for a further 28 h. After treatment, cells were harvested, centrifugated, and 300–500 × 10^3 cells were fixed and permeabilized with 70% ice-cold ethanol at 4 °C for 20 min. The cells were washed twice with PBS and incubated in a staining solution containing 0.1 mg/mL RNAse and 36 μg/mL propidium iodide for 20 min at room temperature. The DNA content analysis was performed using a FACSCanto II flow cytometer (Becton-Dickinson, Mountain View, CA, USA).

[14] = test system: supercoiled plasmid pBR322 DNA; assay: Unwinding assay, electrophoretic mobility of supercoiled DNA; details: 3 h at 37 °C
Experimental: Figure 2SI. Effect of compound (R)-5a on the electrophoretic mobility of supercoiled DNA.
Supercoiled plasmid pBR322 DNA was incubated in the absence or in the presence of (R)-5a at indicated concentrations. The effect of solvent alone on DNA was also assayed (solvent).
Supercoiled pBR322 plasmid DNA (0.15 µg, Fermentas Life Sciences) was incubated in TAE buffer (0.04 M Tris, 0.02 M Acetic Acid, EDTA 1 mM, pH=8) with test compound at indicated concentrations for 3 h at 37 °C in 10 μL final volume. 3 μL of loading buffer (0.125% bromophenol blue, 0.125% xylene cyanol and 50% glycerol) was added to each sample and DNA was separated by electrophoresis on a 0.8% agarose gel at room temperature. The gels were stained with ethidium bromide (1 μg/mL) in TAE buffer, transilluminated by UV light, and the fluorescence emission was visualized by a CCD camera coupled to a Bio-Rad Gel Doc XR apparatus.
as §6

[15] = test system: CEM (human T-lymphocyte cells); assay: Cell growth assay, CEM cells; type: cell-based; details: racemic compounds, 72 h, Coulter counter
Experimental: (§7) HeLa (human cervix carcinoma) and CEM (human T-lymphoblast) were grown in Dulbecco’s modified Eagle’s medium (DMEM; Gibco, Carlsbad, CA, USA), supplemented with 0.01 M Hepes (Gibco) and 1 mM sodium pyruvate (Gibco) in a humidified 5% CO2 incubator at 37 °C. HMEC-1 (human microvascular endothelial cells) was maintained in Dulbecco’s modified Eagle’s medium (DMEM)/low glucose containing glutamine (2 mM). The media were supplemented with 10% fetal bovine serum (FBS, Gibco), penicillin ([…]), streptomycin ([…]), and amphotericin B ([…]). CEM cells were seeded in 96-well plates at 60,000 cells/well in the presence of different concentrations of the compounds, and allowed to proliferate for 72 h. HeLa cells were seeded in 96-well plates at 15,000 cells/well in the presence of different concentrations of the compounds. After 4 days of incubation, the cells were trypsinized and counted. HMEC-1 cells were seeded in 48-well plates at 20,000 cells/well. After 24 h, the compounds were added at different concentrations. The cells were allowed to proliferate for 4 days in the presence of the compounds, trypsinized, and counted. All cells were counted by means of a Coulter counter (Analis, Belgium).

[16] = test system: HeLa (human cervix carcinoma cells); assay: Cell growth assay, HeLa cells; type: cell-based; details: 96 h, racemic compounds, 4 days, Coulter counter
Experimental: as §7

[17] = test system: HMEC-1 (human dermal microvascular endothelial cells); assay: Cell growth assay, HMEC-1 cells; type: cell-based; details: HMEC-1, 96 h, racemic compounds, 4 days, Coulter counter
Experimental: as §7

## O=C(Sc1cccc2cccnc12)c1ccccc1Cl [QCBT7, Quinolin-chlorobenzothiazoate]
HCT-116
  IC50: 600 nM

## COc1cc(NS(C)(=O)=O)ccc1Nc1c2ccccc2nc2ccccc12 [m-AMSA, Meta-amsacrine]
[1]
  IC50: 19 ± 1 nM
[2]
  IC50: 27 ± 5 nM
[3]
  IC50: 39 ± 4 nM

## COc1ccc(/C=C\c2cc(OC)c(OC)c(OC)c2)cc1OP(=O)(O)O [CA-4P, Combretastatin A4P]
[4]
  IC50: 95 ± 6 nM
[5]
  IC50: 2.9 nM
[6]
  IC50: 79 ± 3 nM

## CN1C(=O)c2cc(C(N)=O)nc3c(N)c(Cl)c(N)c1c23 [Compound 4, ammosamide B]
[7]
  IC50: 61 nM

## Cc1ccc2c(n1)[C@H](/N=C/c1ncc[nH]1)CCC2 [(R)-5a, (E)-1-(1H-imidazol-2-yl)-N-(2-methyl-5,6,7,8-tetrahydroquinolin-8-yl)methanimine]
[8]; R enantiomer versus S enantiomer
  inhibitory effect on the A2780 cell line with respect to its counterpart (S)-5a: ~3 fold
[8]; pure enantiomers
  IC50: 5400 ± 1300 nM
[9]
  effect on the relaxation ability of topoisomerase II: unable to induce
[10]; pure enantiomers
  IC50: 15100 ± 1500 nM
  cytotoxic effect on MSTO-211H (in words): appreciable inhibition on cell growth
Human topoisomerase I
  effect on the relaxation ability of topoisomerase I: unable to induce
[11]; HT-29, pure enantiomers
  IC50: > 20000 nM
A2780 cells [12]
  intracellular amount of ROS with respect to untreated cells (control): more than 4 fold
A2780 cells [13]; 2.5 μM
  cell percentage in G0/G1: 61.2 ± 0.9%
  cell percentage in G2/M: 13.4 ± 0.7%
  cell percentage in S: 25.5 ± 0.6%
A2780 cells [13]; 5 μM
  cell percentage in G0/G1: 63.7 ± 0.6%
  cell percentage in G2/M: 12.1 ± 0.6%
  cell percentage in S: 24.1 ± 1.1%
A2780 cells [13]; 10 μM
  cell percentage in G0/G1: 70.3 ± 1.2%
  cell percentage in G2/M: 9.8 ± 0.6%
  cell percentage in S: 19.8 ± 0.9%
A2780 cells [13]; 20 μM
  cell percentage in G0/G1: 71.6 ± 0.7%
  cell percentage in G2/M: 9.0 ± 0.8%
  cell percentage in S: 19.5 ± 0.4%
[14]
  modification in the electrophoretic migration of supercoiled plasmid DNA: unable to induce any modification

## CNc1c(Cl)c(N)c2c3c(cc(C(N)=O)nc13)C(=O)N2C [Compound 5]
[7]
  IC50: 4.1 nM

## Cc1ccc2c(n1)C(NCc1cccc(C)c1O)CCC2 (stereo not shown) [Compound 1b, 2-methyl-6-(((2-methyl-5,6,7,8-tetrahydroquinolin-8-yl)amino)methyl)phenol]
[8]; Homo sapiens, A2780, 72 h, racemic compounds
  IC50: 42000 ± 5000 nM
[10]; racemic compounds
  IC50: 28000 ± 4000 nM
[15]
  IC50: 66000 ± 47000 nM
[11]; HT-29, racemic compounds
  IC50: 57000 ± 6000 nM
other
  melting point: 89.2 to 91.1 °C
[16]
  IC50: 93000 ± 10000 nM
[17]
  IC50: 63000 ± 2000 nM
